Test: xn = mol fraction of the nth substance listed
Settings: 101 kPa, Liquid

CC(=O)N1CCOCC1 [4-acetylmorpholine] + O
Settings	mass density, 298.15 K [kg/m3]	mass density, 303.15 K [kg/m3]	mass density, 313.15 K [kg/m3]	viscosity, 298.15 K [mPa·s]	viscosity, 303.15 K [mPa·s]	viscosity, 313.15 K [mPa·s]
x1 = 0.05	1034.97	1032.47	1027.12	1.79	1.56	1.23
x1 = 0.07	1046.13	1043.32	1037.36	2.22	1.96	1.52
x1 = 0.1	1060.06	1056.85	1050.17	3.22	2.75	2.1
x1 = 0.2	1087.71	1083.85	1075.73	5.96	4.94	3.55
x1 = 0.3	1100.16	1095.95	1087.43	8.7	7.01	4.8
x1 = 0.4	1106	1101.68	1092.98	10.1	8.02	5.47
x1 = 0.5	1108.55	1104.19	1095.41	10.4	8.29	5.68
x1 = 0.6	1109.77	1105.39	1096.65	10.5	8.48	5.77
x1 = 0.7	1110.29	1105.93	1097.23	9.61	7.89	5.56
x1 = 0.8	1110.46	1106.12	1097.4	9.18	7.56	5.42
x1 = 0.9	1110.4	1106.08	1097.41	8.79	7.3	5.28
x1 = 1	1110.33	1106	1097.35	8.48	7.1	5.18
